Measured values from patent US20010044445A1, “AZOLE INHIBITORS OF CYTOKINE PRODUCTION” (priority 1999, published 2001).

Columns and labels:
[1] = tested on: Human peripheral blood mononuclear cells; assay: Human Concanavalin-A Proliferation Assay (Con HU Assay); type: cell-based; conditions: concanavalin-A stimulated human PBMC; for inhibition at 1 µM / inhibition at 10 µM / IC50 / inhibition at 100 µM: Homo sapiens, PBMC; for inhibition at 1 µM / inhibition at 10 µM / inhibition at 100 µM: 72 h, read-out: % Inhibition of proliferation (at concentrations of 1,10, or 100 μm); for inhibition at 10 µM: concentration 10 μm (in parentheses in the cell); for IC50: tritiated thymidine; for inhibition at 100 µM: concentration 100 μm (in parentheses in the cell)
Method in brief: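 Proliferation read as tritiated thymidine uptake (0.5 μCi/well, 6 h pulse on day 3) in human PBMC cultured 3 days with 2.5 μg/ml (final) concanavalin-A. Cells, 50,000 per well in supplemented RPMI 1640 with 10% FBS, received compound 15 min before mitogen.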

[2] = concentration 1 μm (in parentheses in the cell), 3 days

Structure (SMILES)	inhibition at 1 µM [1, 2] [%]	melting point [°C]	inhibition at 10 µM ([1]; 3 days) [%]	IC50 [1] [nM]	inhibition at 100 µM ([1]; 3 days) [%]	% Inhibition of proliferation (at concentrations of 1,10, or 100 μm) [1, 2]
O=C(Nc1cccc(-n2nc(C(F)(F)F)cc2C(F)(F)F)c1)c1cccc(Cl)c1Cl [Example 198, N-[3-[3,5-bis(trifluoromethyl)-1H-pyrazol-1-yl]phenyl]-2,3-dichlorobenzamide]	4	119 to 121	–	–	–	–
CS(=O)(=O)c1cccc(C(=O)Nc2ccc(-n3nc(C(F)(F)F)cc3C(F)(F)F)cc2)c1 [Example 126, N-[4-[3,5-bis(trifluoromethyl)-1H-pyrazol-1-yl]phenyl]-3-(methylsulfonyl)benzamide]	–	194 to 195	79	4910	–	–
O=C(Nc1cccc(-n2nc(C(F)(F)F)cc2C(F)(F)F)c1)c1ccc(F)cc1 [Example 202, N-[3-[3,5-bis(trifluoromethyl)-1H-pyrazol-1-yl]phenyl]-4-fluorobenzamide]	6	150 to 152	–	–	–	–
O=C(Nc1ccc(-n2nc(C(F)(F)F)cc2C(F)(F)F)cc1)c1cc(F)c(F)c(F)c1 [Example 227, N-[4-[3,5-bis(trifluoromethyl)-1H-pyrazol-1-yl]phenyl]-3,4,5-trifluorobenzamide]	–	158 to 159	100	257	–	–
Cc1oncc1C(=O)Nc1ccc(-n2nc(C(F)(F)F)cc2C(F)(F)F)cc1 [Example 184, N-[4-[3,5-bis(trifluoromethyl)-1H-pyrazol-1-yl]phenyl]-5-methyl-4-isoxazolecarboxamide]	–	163 to 167	90	420	–	–
O=C(Nc1ccc(-n2nc(C(F)(F)F)cc2C(F)(F)F)cc1)c1ccc(F)c([N+](=O)[O-])c1 [Example 200, N-[4-[3,5-bis(trifluoromethyl)-1H-pyrazol-1-yl]phenyl]-4-fluoro-3-nitrobenzamide]	26	186 to 187	–	–	–	–
COc1cc(C(=O)Nc2ccc(-n3nc(C(F)(F)F)cc3C(F)(F)F)cc2)cs1 [Example 259, N-[4-[3,5-bis(trifluoromethyl)-1H-pyrazol-1-yl]phenyl]-5-methoxy-3-thiophenecarboxamide]	5	213 to 214	–	–	–	–
O=C(O)c1cccc(C(=O)Nc2ccc(-n3nc(C(F)(F)F)cc3C(F)(F)F)cc2)c1 [Example 159, 3-[[[4-[3,5-bis(trifluoromethyl)-1H-pyrazol-1-yl]phenyl]amino]carbonyl]benzoic acid]	–	244 to 245	93	2930	–	–
O=C(Nc1ccc(-n2nc(C(F)(F)F)cc2C(F)(F)F)cc1)c1ccc(F)cc1C(F)(F)F [Example 201, N-[4-[3,5-bis(trifluoromethyl)-1H-pyrazol-1-yl]phenyl]-4-fluoro-2-(trifluoromethyl)benzamide]	–	178 to 179	100	364	–	–
Cc1noc(C)c1C(=O)Nc1ccc(-n2nc(C(F)(F)F)cc2C(F)(F)F)c(Cl)c1 [Example 277, N-[4-[3,5-bis(trifluoromethyl)-1H-pyrazol-1-yl]-3-chlorophenyl]-3,5-dimethyl-4-isoxazolecarboxamide]	–	64 to 65	–	1060	99	–
Cc1nc(C)n(-c2ccc(NC(=O)c3snnc3C)cc2)n1 [Example 289, N-[4-(3,5-dimethyl-1H-1,2,4-triazol-1-yl)phenyl]-4-methyl-1,2,3-thiadiazole-5-carboxamide]	22	144 to 145	–	–	–	–
O=C(Nc1ccc(-n2nc(C(F)(F)F)cc2C(F)(F)F)cc1)c1c(F)cccc1F [Example 160, N-[4-[3,5-bis(trifluoromethyl)-1H-pyrazol-1-yl]phenyl]-2,6-difluorobenzamide]	1	127 to 128	–	–	–	–
O=C(Nc1ccc(-n2nc(C(F)(F)F)cc2C(F)(F)F)cc1)c1ccc2c(c1)OCO2 [Example 148, N-[4-[3,5-bis(trifluoromethyl)-1H-pyrazol-1-yl]phenyl]-1,3-benzodioxole-5-carboxamide]	–	222 to 224	–	529	94	–
O=C(Nc1ccc(-n2nc(C(F)(F)F)cc2C(F)(F)F)cc1)c1ccc(C(F)(F)F)cc1 [Example 89, N-[4-[3,5-bis(trifluoromethyl)-1H-pyrazol-1-yl]phenyl]-4-(trifluoromethyl)benzamide]	–	170 to 172	–	1230	99	–
CC(C(=O)Nc1ccc(-n2nc(C(F)(F)F)cc2C(F)(F)F)cc1)c1ccc(C(=O)c2cccs2)cc1 (stereo not drawn) [Example 177, N-[4-[3,5-bis(trifluoromethyl)-1H-pyrazol-1-yl]phenyl]-α-methyl-4-(2-thienylcarbonyl)benzeneacetamide]	–	< 80	–	–	–	4(1) %
O=C(Nc1ccc(-n2nc(C(F)(F)F)cc2C(F)(F)F)cc1)c1ccc[nH]1 [Example 166, N-[4-[3,5-bis(trifluoromethyl)-1H-pyrazol-1-yl]phenyl]-1H-pyrrole-2-carboxamide]	11	> 240	–	–	–	–
O=C(Nc1ccc(-n2nc(C(F)(F)F)cc2C(F)(F)F)cc1)c1cc2cc(F)ccc2[nH]1 [Example 20, N-[4-[3,5-bis(trifluoromethyl)-1H-pyrazol-1-yl]phenyl]-5-fluoro-1H-indole-2-carboxamide]	10	253 to 255	–	–	–	–
O=C(Nc1ccc(-n2nc(C(F)(F)F)cc2C(F)(F)F)cc1)c1nc(Cl)ccc1Cl [Example 167, N-[4-[3,5-bis(trifluoromethyl)-1H-pyrazol-1-yl]phenyl]-3,6-dichloro-2-pyridinecarboxamide]	–	118 to 119	–	279	100	–
O=C(Nc1ccc(-n2nc(C(F)(F)F)cc2C(F)(F)F)cc1)c1ccccc1Oc1ccccc1 [Example 57, N-[4-[3,5-bis(trifluoromethyl)-1H-pyrazol-1-yl]phenyl]-2-phenoxybenzamide]	5	108 to 109	–	–	–	–
CCCCCc1ccc(C(=O)Nc2ccc(-n3nc(C(F)(F)F)cc3C(F)(F)F)cc2)c(=O)o1 [Example 4, N-[4-[3,5-bis(trifluoromethyl)-1H-pyrazol-1-yl]phenyl]-2-oxo-6-pentyl-2H-pyran-3-carboxamide]	–	140 to 141	–	28800	82	–
O=C(Nc1ccc(-n2nc(C(F)(F)F)cc2C(F)(F)F)cc1)c1ccc(Br)cc1 [Example 85, N-[4-[3,5-bis(trifluoromethyl)-1H-pyrazol-1-yl]phenyl]-4-bromobenzamide]	–	205 to 207	–	275	93	–
Cc1cc(Br)cc(C)c1NC(=O)Nc1ccc(-n2nc(C(F)(F)F)cc2C(F)(F)F)cc1 [Example 45, N-[4-[3,5-bis(trifluoromethyl)-1H-pyrazol-1-yl]phenyl]-N′-(4-bromo-2,6-dimethylphenyl)urea]	18	> 230	–	–	–	–
O=C(Nc1ccc(-n2nc(C(F)(F)F)cc2Cl)cc1)c1ccncc1F [Example 328, N-(4-(5-chloro-3-(trifluoromethyl)-1H-pyrazol-1-yl)phenyl)-3-fluoroisonicotinamide]	–	128 to 129	–	75	–	–
O=C(Nc1ccc(-n2nc(C(F)(F)F)cc2C(F)(F)F)cc1)c1ccc(C(F)(F)F)cc1C(F)(F)F [Example 183, N-[4-[3,5-bis(trifluoromethyl)-1H-pyrazol-1-yl]phenyl]-2,4-bis(trifluoromethyl)benzamide]	–	200 to 201	94	542	–	–
O=C(Nc1ccc(-n2nc(C(F)(F)F)cc2C(F)(F)F)cc1)C1=CCCC1 [Example 10, N-[4-[3,5-bis(trifluoromethyl)-1H-pyrazol-1-yl]phenyl]-1-cyclopentene-1-carboxamide]	–	174 to 175	100	114	–	–
O=C(Nc1ccc(-n2nc(C(F)(F)F)cc2C(F)(F)F)cc1)c1cccc(I)c1 [Example 25, N-[4-[3,5-bis(trifluoromethyl)-1H-pyrazol-1-yl]phenyl]-3-iodobenzamide]	–	192 to 193	100	396	–	–
N#CCC(=O)Nc1ccc(-n2nc(C(F)(F)F)cc2C(F)(F)F)cc1 [Example 52, N-[4-[3,5-bis(trifluoromethyl)-1H-pyrazol-1-yl]phenyl]-2-cyanoacetamide]	26	140 to 143	–	–	–	–
O=C(Nc1ccc(-n2nc(C(F)(F)F)cc2C(F)(F)F)cc1)C1CCCN1 (stereo not drawn) [Example 242, N-[4-[3,5-bis(trifluoromethyl)-1H-pyrazol-1-yl]phenyl]-2-pyrrolidinecarboxamide]	3	82 to 84	–	–	–	–
NC(=O)c1ccc(C(=O)Nc2ccc(-n3nc(C(F)(F)F)cc3C(F)(F)F)cc2)cc1 [Example 133, N-[4-[3,5-bis(trifluoromethyl)-1H-pyrazol-1-yl]phenyl]-1,4-benzenedicarboxamide]	–	290 to 291	97	315	–	–
COc1cc(C(F)(F)F)nn1-c1ccc(NC(=O)c2snnc2C)cc1 [Example 314, N-(4-(5-methoxy-3-(trifluoromethyl)-1H-pyrazol-1-yl)phenyl)-4-methyl-1,2,3-thiadiazole-5-carboxamide]	–	159 to 160	–	246	–	–
